Results published in US20160183564A1 (priority 2013, published 2016).
Values joined by “and” are separate entries in the source; they are usually repeats but may differ in a detail not shown here. Equal values may be shown once.

Key:
[1] = test system: Methanogenesis; assay type: cell-based
[2] = test system: VFA production; assay type: cell-based

| Compound | Effect on Methanogenesis (% compared to control) [1] | VFA profile (as percentage of total VFA) But. [2] | VFA profile (as percentage of total VFA) Prop. [2] | VFA profile (as percentage of total VFA) ace. [2] |
| --- | --- | --- | --- | --- |
| O=[N+]([O-])c1ccc(NCCO)cc1 [2-(4-Nitro-phenylamino)-ethanol] | −12% | – | – | – |
| O=[N+]([O-])OCCCO [3-nitrooxy propanol, 3-Nitrooxypropanol] | −9% and −8% | 6 percentage of total VFA | 34 percentage of total VFA | 59 percentage of total VFA |
| CCCNc1ccc([N+](=O)[O-])cc1 [(4-Nitro-phenyl)-propyl-amine] | −11% | – | – | – |
| Nc1ccc([N+](=O)[O-])cc1 [(4-nitro-phenyl)-amine] | −15% | 8 percentage of total VFA | 33 percentage of total VFA | 59 percentage of total VFA |
